The target of one experiment is T1, mGluR2 (Rattus norvegicus, UniProt P31421).
T1 construct: expressed in transfected cells; host or cells: HEK 293
The experiment is described as follows: accumulation of inositol phosphates in transfected HEK 293 cells expressing mGluR2 co-expressed with chimeric G protein. Type of experiment: cell-based. How it is done:
(§1) For this purpose, the activation of phospholipase C was measured (accumulation of inositol phosphates).
(§2) The HEK 293 cells are cultured in a Dulbecco's modified Eagle medium (DMEM, Gibco BRL) to which 10% of foetal calf serum has been added, and transfected by electroporation as previously described by Gomeza et al., Molecular Pharmacology, 1996, 50:923-930 (1996).
(§3) The electroporation is carried out in a total volume of 300 μl with 10 μg of supporting DNA, plasmid DNA containing mGluR1a (0.3 μg), mGluR2 (2 μg) or mGluR4a (5 μg) and 10^7 cells.
In order to allow activation of the phospholipase C by mGluR2 and mGluR4a, which effect is easier to measure than the inhibition of the production of cAMP, these receptors are co-expressed with chimeric G, Gqo5 and Gqi9 proteins, as described by Gomeza. The pharmacological profiles of these 2 receptors determined according to this method, have already been described as identical to those characterized by measuring the inhibition of the formation of cAMP.
(§4) Determination of the accumulation of inositol phosphates (IP).
(§5) The determination of the accumulation of IP in transfected cells is carried out as described by Gomeza after labelling the cells for approximately 14 hours with [^3H]-myo-inositol (23.4 Ci/mol, NEN, France).
(§6) Stimulation is carried out for 30 minutes in a medium containing 10 mM LiCl in the presence of the drugs tested. The formation of the basic IP is determined after 30 minutes of incubation in the presence of 10 mM LiCl and pyruvate glutamate transaminase (1 U/ml) degrading the glutamate (Glu) and 2 mM of pyruvate in order to avoid the possible effects of Glu released by the cells. The results are expressed in the quantity of IP product with respect to the radioactivity present in the membranes.

The target in the next experiment is T2, mGluR1a (Rattus norvegicus, UniProt P23385).
T2 construct: expressed in transfected cells; host or cells: HEK 293
The experiment can be described thus: accumulation of inositol phosphates (phospholipase C activation) in transfected HEK 293 cells expressing mGluR1a. Type of experiment: cell-based. On the procedure:
as §1, §2, §3, §4, §5, §6

The next experiment deals with T3, mGluR4a (Rattus norvegicus, UniProt P31423).
T3 construct: expressed in transfected cells; host or cells: HEK 293
The experiment is described as follows: accumulation of inositol phosphates in transfected HEK 293 cells expressing mGluR4a co-expressed with chimeric G protein. Type of experiment: cell-based. How it is done:
as §1, §2, §3, §4, §5, §6

The subject of experiment [1] is ionotropic receptors (NMDA, AMPA and kainate receptors). The experiment is described as follows: patch clamp recording of granule cells of the cerebellum. Type of experiment: cell-based, mice. The following applies: ACPT 1 mM; NMDA or kainate 100 μM. How it is done:
Culture and recording of the granule cells of the cerebellum
The granule cells of the cerebellum are cultured from 7 day-old baby mice as described by Van-Vliet, B. J., J. of Neurochemistry, 1989, .52, 1229-1239.
Recording is carried out using the technique known as a “patch clamp” in the full cell configuration and the molecules are applied using a rapid application technique.
Initially, tests were carried out in order to check whether the ACPT's were capable of activating or exercising an antagonist effect vis-à-vis the ionotropic receptors. These tests have shown that none of the ACPT enantiomers induces a current when they are placed in contact with the granule cells of the cerebellum at a concentration of 1 mM.
In the same batches, currents are on the contrary seen to be induced by NMDA (100 μM) or kainate (100 μM, which concentration allows activation of both the AMPA and kainate receptors), as envisaged given the activation of the NMDA and non-NMDA receptors.
(Patch clamp records ionic current or voltage across a cell membrane.)

As a reminder, the Kb is the affinity of an antagonist, worked out from how it opposes an agonist. One may read the EC50 as the concentration giving half of the maximal effect.

T1 sequence (P31421 19-872): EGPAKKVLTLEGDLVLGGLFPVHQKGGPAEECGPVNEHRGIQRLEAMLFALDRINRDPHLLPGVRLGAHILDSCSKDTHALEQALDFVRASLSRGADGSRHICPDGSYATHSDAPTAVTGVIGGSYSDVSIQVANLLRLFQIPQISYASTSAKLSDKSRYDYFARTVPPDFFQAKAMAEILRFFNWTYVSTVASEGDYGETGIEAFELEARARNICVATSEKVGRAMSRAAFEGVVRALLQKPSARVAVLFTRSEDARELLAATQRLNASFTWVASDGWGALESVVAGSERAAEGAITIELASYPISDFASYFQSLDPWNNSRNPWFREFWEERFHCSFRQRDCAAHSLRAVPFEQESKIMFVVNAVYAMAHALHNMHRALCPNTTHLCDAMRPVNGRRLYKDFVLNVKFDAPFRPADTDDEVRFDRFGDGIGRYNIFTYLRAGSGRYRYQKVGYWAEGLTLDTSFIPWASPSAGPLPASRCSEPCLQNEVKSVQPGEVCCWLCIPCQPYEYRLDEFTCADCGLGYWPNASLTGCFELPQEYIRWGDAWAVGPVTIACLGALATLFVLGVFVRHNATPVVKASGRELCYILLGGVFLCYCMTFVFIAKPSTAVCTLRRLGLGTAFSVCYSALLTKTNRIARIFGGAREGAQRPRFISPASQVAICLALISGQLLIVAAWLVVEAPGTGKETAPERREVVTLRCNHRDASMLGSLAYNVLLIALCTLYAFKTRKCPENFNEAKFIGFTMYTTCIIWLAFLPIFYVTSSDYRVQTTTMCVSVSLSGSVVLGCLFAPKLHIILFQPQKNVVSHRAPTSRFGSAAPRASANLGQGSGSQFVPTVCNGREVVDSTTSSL
T2 sequence (P23385 19-1199): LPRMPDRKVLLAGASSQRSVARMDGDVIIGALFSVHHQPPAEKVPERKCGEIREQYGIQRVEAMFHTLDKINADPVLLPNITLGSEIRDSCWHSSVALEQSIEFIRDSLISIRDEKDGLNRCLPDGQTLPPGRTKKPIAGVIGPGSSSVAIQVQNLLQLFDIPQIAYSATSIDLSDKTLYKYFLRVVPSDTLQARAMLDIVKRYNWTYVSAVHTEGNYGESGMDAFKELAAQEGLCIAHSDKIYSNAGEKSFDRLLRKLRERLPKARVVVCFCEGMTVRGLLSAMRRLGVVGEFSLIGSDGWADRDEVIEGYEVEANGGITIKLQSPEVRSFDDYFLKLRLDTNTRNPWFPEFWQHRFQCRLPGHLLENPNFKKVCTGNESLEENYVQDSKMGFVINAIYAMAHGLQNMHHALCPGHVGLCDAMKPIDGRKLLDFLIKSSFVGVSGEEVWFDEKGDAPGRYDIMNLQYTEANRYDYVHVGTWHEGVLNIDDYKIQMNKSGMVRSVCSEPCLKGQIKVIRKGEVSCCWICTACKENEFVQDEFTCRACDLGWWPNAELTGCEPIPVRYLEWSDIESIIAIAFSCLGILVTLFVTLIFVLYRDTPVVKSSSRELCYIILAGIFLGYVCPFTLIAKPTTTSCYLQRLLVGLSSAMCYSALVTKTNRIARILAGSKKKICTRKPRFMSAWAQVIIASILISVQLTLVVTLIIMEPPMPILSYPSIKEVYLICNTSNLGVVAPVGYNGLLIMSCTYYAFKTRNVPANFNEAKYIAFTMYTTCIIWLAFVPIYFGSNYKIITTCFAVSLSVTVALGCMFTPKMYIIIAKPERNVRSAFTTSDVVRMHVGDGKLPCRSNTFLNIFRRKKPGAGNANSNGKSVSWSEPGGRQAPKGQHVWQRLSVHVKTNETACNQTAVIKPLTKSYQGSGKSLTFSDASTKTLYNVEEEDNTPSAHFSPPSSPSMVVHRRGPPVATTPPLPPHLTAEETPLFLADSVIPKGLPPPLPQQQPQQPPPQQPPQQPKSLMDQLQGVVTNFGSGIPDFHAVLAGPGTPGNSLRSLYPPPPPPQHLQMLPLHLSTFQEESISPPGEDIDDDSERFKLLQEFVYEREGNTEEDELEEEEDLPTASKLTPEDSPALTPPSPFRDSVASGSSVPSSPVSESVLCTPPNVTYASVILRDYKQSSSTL
T3 sequence (P31423 33-912): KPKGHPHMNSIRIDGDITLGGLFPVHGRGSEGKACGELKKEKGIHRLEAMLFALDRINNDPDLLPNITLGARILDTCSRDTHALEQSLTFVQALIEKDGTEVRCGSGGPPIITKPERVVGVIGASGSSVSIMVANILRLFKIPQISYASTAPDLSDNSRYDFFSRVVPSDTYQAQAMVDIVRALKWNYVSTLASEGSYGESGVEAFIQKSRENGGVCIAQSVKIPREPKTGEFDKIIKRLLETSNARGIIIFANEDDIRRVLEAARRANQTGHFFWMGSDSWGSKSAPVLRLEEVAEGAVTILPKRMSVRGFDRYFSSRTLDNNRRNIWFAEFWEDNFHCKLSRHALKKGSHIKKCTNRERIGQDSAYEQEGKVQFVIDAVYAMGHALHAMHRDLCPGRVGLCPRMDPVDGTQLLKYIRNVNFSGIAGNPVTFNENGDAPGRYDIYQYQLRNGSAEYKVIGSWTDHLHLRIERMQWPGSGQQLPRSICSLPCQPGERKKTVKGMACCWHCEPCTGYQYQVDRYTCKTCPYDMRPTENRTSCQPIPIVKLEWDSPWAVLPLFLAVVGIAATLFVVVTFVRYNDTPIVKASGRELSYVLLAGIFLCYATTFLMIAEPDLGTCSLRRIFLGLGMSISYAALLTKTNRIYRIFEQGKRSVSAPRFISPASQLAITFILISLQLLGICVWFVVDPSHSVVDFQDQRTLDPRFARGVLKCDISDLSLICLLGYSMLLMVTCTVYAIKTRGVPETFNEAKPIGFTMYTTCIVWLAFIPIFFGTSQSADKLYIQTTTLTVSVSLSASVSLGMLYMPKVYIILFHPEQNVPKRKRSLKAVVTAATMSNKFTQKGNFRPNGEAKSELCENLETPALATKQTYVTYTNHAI

Take `NC1(C(=O)O)CC(C(=O)O)C(C(=O)O)C1` (racemic) [(=)-ACPT-III, 1-amino-cyclopentane-1,3,4 tricarboxylic acid]: the “inhibition of the responses induced by Glu in cells expressing mGluR2, in words” value on mGluR2 is listed as “inhibit the responses induced by Glu”. Also, the antagonist equilibrium constant (Kb) at mGluR2 (HEK 293 cells, IP accumulation induced by Glu, Shild representation, read-out: mGluR2 KB (antagonist effect)) was above 300 µM; on mGluR1a (HEK 293 cells, IP accumulation induced by Glu, Shild representation, read-out: mGluR1a KB (antagonist effect)), above 300 µM; at mGluR4a (IP accumulation induced by Glu, Shild representation, read-out: mGluR4a KB (antagonist effect)), above 3000 µM. Moreover, the EC50 on mGluR2 (HEK 293 cells, IP accumulation, read-out: mGluR2 EC50 (agonist effect)) was above 3000 µM; at mGluR1a (HEK 293 cells, IP accumulation, read-out: mGluR1a EC50 (agonist effect)), above 3000 µM; at mGluR4a (IP accumulation, read-out: mGluR4a EC50 (agonist effect)) it was 40 ± 8 µM. The “inhibition of the formation of IP induced by Glu in cells expressing mGluR1a, in words” value on mGluR1a is on record as “inhibit the formation of the IP's induced by the Glu”. For the same compound, in experiment [1], the “inhibition of responses induced by NMDA or kainate, in words” value is “No significant inhibition”.

The record behind these values is US6433014B1, “Compounds consisting in particular of effectors of the central nervous system receptors sensitive excitatory amino acids, preparation and biological applications” (Centre National de la Recherche Scientifique (C.N.R.S.), priority 1997, dated 2002).
